Assay results taken from PubChem BioAssay (NCI).
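All cell lines were grown in 96-well plates and treated with compound for 48 hours. GI50: concentration for 50% inhibition of growth. TGI is the concentration that stops growth completely.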

These compounds were tested on M14 melanoma (assay: NCI anticancer screen, dose series, 48 h).

Row | Structure (SMILES) | TGI [µM] | GI50 [µM]
1 | O=c1[nH]nc(NNc2ccccc2)c2nnn(C3CCCCC3)c12 | > 100 | –
2 | C=C1/C(=C\C=C2/CCC[C@]3(C)[C@@H]([C@H](C)CCCC(C)(C)O)CC[C@@H]23)C[C@@H](OC(=O)CBr)C[C@@H]1O | 8.74 | 2.71
3 | COc1ccc(-n2c(=O)[nH]n(C(C)=O)c2=O)cc1 | > 100 | –
4 | O=C(c1ccc(Cl)cc1)N(C(=O)N1CCC(c2ccccc2)CC1)c1ccccc1 | 88.2 | –

These compounds were tested on SF-295 CNS (assay: NCI anticancer screen, dose series, 48 h).

Row | Structure (SMILES) | TGI [µM] | GI50 [µM]
5 | COc1ccc2c3c1O[C@H]1C(OC)C=CC4C(C2)N(Cc2cccs2)CCC341 (some centres not stated) | > 100 | –
6 | Nc1nc(SCCc2ccccc2)nc2nc3c(c(-c4ccccc4)c12)CCCC3 | > 100 | –
7 | C=CCOC(=O)NC1C(OC(C)[C@@H](NC(=O)OCc2ccccc2)C(=O)OC(C)(C)C)OC(COC(C)=O)C(OC(C)=O)C1OC(C)=O (some centres not stated) | > 100 | –
8 | O=c1[nH]nc(NNc2ccccc2)c2nnn(C3CCCCC3)c12 | > 100 | –
9 | C=C1/C(=C\C=C2/CCC[C@]3(C)[C@@H]([C@H](C)CCCC(C)(C)O)CC[C@@H]23)C[C@@H](OC(=O)CBr)C[C@@H]1O | 20.3 | 6.81
10 | COc1ccc(-n2c(=O)[nH]n(C(C)=O)c2=O)cc1 | > 100 | –
11 | O=C(c1ccc(Cl)cc1)N(C(=O)N1CCC(c2ccccc2)CC1)c1ccccc1 | > 100 | –

These compounds were tested on K-562 leukemia (assay: NCI anticancer screen, dose series, 48 h).

Row | Structure (SMILES) | TGI [µM] | GI50 [µM]
12 | COc1ccc2c3c1O[C@H]1C(OC)C=CC4C(C2)N(Cc2cccs2)CCC341 (some centres not stated) | > 100 | –
13 | Nc1nc(SCCc2ccccc2)nc2nc3c(c(-c4ccccc4)c12)CCCC3 | > 100 | –
14 | C=CCOC(=O)NC1C(OC(C)[C@@H](NC(=O)OCc2ccccc2)C(=O)OC(C)(C)C)OC(COC(C)=O)C(OC(C)=O)C1OC(C)=O (some centres not stated) | > 100 | –
15 | O=c1[nH]nc(NNc2ccccc2)c2nnn(C3CCCCC3)c12 | > 100 | –
16 | C=C1/C(=C\C=C2/CCC[C@]3(C)[C@@H]([C@H](C)CCCC(C)(C)O)CC[C@@H]23)C[C@@H](OC(=O)CBr)C[C@@H]1O | > 33.9 | 2.75
17 | COc1ccc(-n2c(=O)[nH]n(C(C)=O)c2=O)cc1 | > 100 | –
18 | O=C(c1ccc(Cl)cc1)N(C(=O)N1CCC(c2ccccc2)CC1)c1ccccc1 | > 100 | –

Each compound was assayed on HCC-2998 colon (assay: NCI anticancer screen, dose series, 48 h).

Row | Structure (SMILES) | TGI [µM] | GI50 [µM]
19 | COc1ccc2c3c1O[C@H]1C(OC)C=CC4C(C2)N(Cc2cccs2)CCC341 (some centres not stated) | > 100 | –
20 | C=CCOC(=O)NC1C(OC(C)[C@@H](NC(=O)OCc2ccccc2)C(=O)OC(C)(C)C)OC(COC(C)=O)C(OC(C)=O)C1OC(C)=O (some centres not stated) | > 100 | –
21 | O=c1[nH]nc(NNc2ccccc2)c2nnn(C3CCCCC3)c12 | > 100 | –
22 | C=C1/C(=C\C=C2/CCC[C@]3(C)[C@@H]([C@H](C)CCCC(C)(C)O)CC[C@@H]23)C[C@@H](OC(=O)CBr)C[C@@H]1O | 27.5 | 13.6

The compounds below were run on MOLT-4 leukemia (assay: NCI anticancer screen, dose series, 48 h).

Row | Structure (SMILES) | TGI [µM] | GI50 [µM]
23 | COc1ccc2c3c1O[C@H]1C(OC)C=CC4C(C2)N(Cc2cccs2)CCC341 (some centres not stated) | > 100 | –
24 | Nc1nc(SCCc2ccccc2)nc2nc3c(c(-c4ccccc4)c12)CCCC3 | > 100 | –
25 | C=CCOC(=O)NC1C(OC(C)[C@@H](NC(=O)OCc2ccccc2)C(=O)OC(C)(C)C)OC(COC(C)=O)C(OC(C)=O)C1OC(C)=O (some centres not stated) | > 100 | –
26 | O=c1[nH]nc(NNc2ccccc2)c2nnn(C3CCCCC3)c12 | > 100 | –
27 | C=C1/C(=C\C=C2/CCC[C@]3(C)[C@@H]([C@H](C)CCCC(C)(C)O)CC[C@@H]23)C[C@@H](OC(=O)CBr)C[C@@H]1O | 2.05 | 0.371
28 | COc1ccc(-n2c(=O)[nH]n(C(C)=O)c2=O)cc1 | > 100 | –
29 | O=C(c1ccc(Cl)cc1)N(C(=O)N1CCC(c2ccccc2)CC1)c1ccccc1 | 57.1 | –

The compounds below were run on OVCAR-3 ovarian (assay: NCI anticancer screen, dose series, 48 h).

Row | Structure (SMILES) | TGI [µM] | GI50 [µM]
30 | COc1ccc2c3c1O[C@H]1C(OC)C=CC4C(C2)N(Cc2cccs2)CCC341 (some centres not stated) | > 100 | –
31 | Nc1nc(SCCc2ccccc2)nc2nc3c(c(-c4ccccc4)c12)CCCC3 | > 100 | –
32 | C=CCOC(=O)NC1C(OC(C)[C@@H](NC(=O)OCc2ccccc2)C(=O)OC(C)(C)C)OC(COC(C)=O)C(OC(C)=O)C1OC(C)=O (some centres not stated) | > 100 | –
33 | O=c1[nH]nc(NNc2ccccc2)c2nnn(C3CCCCC3)c12 | > 100 | –
34 | C=C1/C(=C\C=C2/CCC[C@]3(C)[C@@H]([C@H](C)CCCC(C)(C)O)CC[C@@H]23)C[C@@H](OC(=O)CBr)C[C@@H]1O | 1.23 | 0.395
35 | O=C(c1ccc(Cl)cc1)N(C(=O)N1CCC(c2ccccc2)CC1)c1ccccc1 | > 100 | –

Each compound was assayed on A549 NSCLC (assay: NCI anticancer screen, dose series, 48 h).

Row | Structure (SMILES) | TGI [µM] | GI50 [µM]
36 | COc1ccc2c3c1O[C@H]1C(OC)C=CC4C(C2)N(Cc2cccs2)CCC341 (some centres not stated) | > 100 | –
37 | Nc1nc(SCCc2ccccc2)nc2nc3c(c(-c4ccccc4)c12)CCCC3 | > 100 | –
38 | C=CCOC(=O)NC1C(OC(C)[C@@H](NC(=O)OCc2ccccc2)C(=O)OC(C)(C)C)OC(COC(C)=O)C(OC(C)=O)C1OC(C)=O (some centres not stated) | > 100 | –
39 | O=c1[nH]nc(NNc2ccccc2)c2nnn(C3CCCCC3)c12 | > 100 | –
40 | C=C1/C(=C\C=C2/CCC[C@]3(C)[C@@H]([C@H](C)CCCC(C)(C)O)CC[C@@H]23)C[C@@H](OC(=O)CBr)C[C@@H]1O | 31.5 | 6.26
41 | COc1ccc(-n2c(=O)[nH]n(C(C)=O)c2=O)cc1 | > 100 | –

What follows are compounds tested on NCI-H522 lung (assay: NCI anticancer screen, dose series, 48 h).

Row | Structure (SMILES) | TGI [µM] | GI50 [µM]
42 | COc1ccc2c3c1O[C@H]1C(OC)C=CC4C(C2)N(Cc2cccs2)CCC341 (some centres not stated) | > 100 | –
43 | C=CCOC(=O)NC1C(OC(C)[C@@H](NC(=O)OCc2ccccc2)C(=O)OC(C)(C)C)OC(COC(C)=O)C(OC(C)=O)C1OC(C)=O (some centres not stated) | > 100 | –
44 | C=C1/C(=C\C=C2/CCC[C@]3(C)[C@@H]([C@H](C)CCCC(C)(C)O)CC[C@@H]23)C[C@@H](OC(=O)CBr)C[C@@H]1O | 0.83 | 0.255
